According to publication PMC6895203, “Conformational pathway provides unique sensitivity to a synaptic mGluR” (Nature Communications, 2019):
“And” between values parts separate entries of the source, which are not always exact repeats. Equal values may be shown once.

Columns and labels:
mGluR5/mGluR5(YADA) = conditions: cited from earlier work
mGluR5(YADA) homodimer = conditions: 10 mM glutamate ref 46; cited from earlier work
SNAP-mGluR2(F756D) = molecular target: T1, SNAP-mGluR2(F756D) (Rattus norvegicus, UniProt P31421, F756D); assay: Whole-cell patch clamp of GIRK1 current, SNAP-mGluR2(F756D) expressed alone; assay type: cell-based; conditions: SNAP-mGluR2-F756D alone; 1 mM Glu; single cells
T1 construct: HA (N); expressed in transfected cells; host or cells: HEK293 / HEK293T
T1 sequence (P31421 19-872 F756D): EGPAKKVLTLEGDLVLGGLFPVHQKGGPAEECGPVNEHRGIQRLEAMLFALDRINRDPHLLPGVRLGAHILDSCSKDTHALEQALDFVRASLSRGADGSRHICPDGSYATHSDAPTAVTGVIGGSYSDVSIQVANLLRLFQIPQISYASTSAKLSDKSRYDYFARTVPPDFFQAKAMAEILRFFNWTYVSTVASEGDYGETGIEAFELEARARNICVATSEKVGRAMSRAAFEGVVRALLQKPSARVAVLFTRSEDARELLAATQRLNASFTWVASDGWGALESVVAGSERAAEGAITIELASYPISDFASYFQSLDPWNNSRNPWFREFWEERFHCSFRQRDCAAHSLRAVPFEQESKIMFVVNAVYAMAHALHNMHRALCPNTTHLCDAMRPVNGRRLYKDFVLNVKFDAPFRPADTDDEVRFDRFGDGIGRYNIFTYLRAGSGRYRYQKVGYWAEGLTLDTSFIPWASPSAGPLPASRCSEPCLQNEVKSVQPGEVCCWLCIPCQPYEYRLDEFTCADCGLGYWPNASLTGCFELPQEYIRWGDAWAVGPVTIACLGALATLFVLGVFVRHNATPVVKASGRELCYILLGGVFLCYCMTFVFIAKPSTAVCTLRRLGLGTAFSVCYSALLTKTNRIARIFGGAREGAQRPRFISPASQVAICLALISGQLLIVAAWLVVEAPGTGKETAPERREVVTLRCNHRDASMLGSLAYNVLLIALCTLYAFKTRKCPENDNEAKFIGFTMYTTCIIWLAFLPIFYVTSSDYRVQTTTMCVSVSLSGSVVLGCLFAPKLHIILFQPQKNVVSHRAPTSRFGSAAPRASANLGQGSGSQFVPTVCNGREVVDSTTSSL
Excerpt: We explored this further by examining trans-activation, whereby binding of ligand to one subunit activates G-protein interaction in the partner subunit[46],[47]. To specifically activate only the mGluR2 subunit of the mGluR2/7 heterodimer, we selectively attached a photoswitched tethered ligand to mGluR2.
Illumination was applied to the entire field of view using either a Polychrome V monochromator (TILL Photonics) through a 20× objective, or a Lambda DG4 high-speed wavelength switcher (Sutter Instruments) with 380 nm and 500 nm filters through a 40× objective. pClamp software was used for both data acquisition and control of illumination.

[1] = molecular target: T2, CLIP-mGluR3/SNAP-mGluR7 heterodimer (mGluR3/7) (Rattus norvegicus, UniProt P31422+P35400); assay: smFRET on CLIP-mGluR3/SNAP-mGluR7 heterodimers; assay type: biochemical; conditions: for smFRET histogram value: 10uM Glu
T2 construct: Flag (N); HA (N); made in house; host or cells: HEK293T
T2 sequence (P31422 23-879): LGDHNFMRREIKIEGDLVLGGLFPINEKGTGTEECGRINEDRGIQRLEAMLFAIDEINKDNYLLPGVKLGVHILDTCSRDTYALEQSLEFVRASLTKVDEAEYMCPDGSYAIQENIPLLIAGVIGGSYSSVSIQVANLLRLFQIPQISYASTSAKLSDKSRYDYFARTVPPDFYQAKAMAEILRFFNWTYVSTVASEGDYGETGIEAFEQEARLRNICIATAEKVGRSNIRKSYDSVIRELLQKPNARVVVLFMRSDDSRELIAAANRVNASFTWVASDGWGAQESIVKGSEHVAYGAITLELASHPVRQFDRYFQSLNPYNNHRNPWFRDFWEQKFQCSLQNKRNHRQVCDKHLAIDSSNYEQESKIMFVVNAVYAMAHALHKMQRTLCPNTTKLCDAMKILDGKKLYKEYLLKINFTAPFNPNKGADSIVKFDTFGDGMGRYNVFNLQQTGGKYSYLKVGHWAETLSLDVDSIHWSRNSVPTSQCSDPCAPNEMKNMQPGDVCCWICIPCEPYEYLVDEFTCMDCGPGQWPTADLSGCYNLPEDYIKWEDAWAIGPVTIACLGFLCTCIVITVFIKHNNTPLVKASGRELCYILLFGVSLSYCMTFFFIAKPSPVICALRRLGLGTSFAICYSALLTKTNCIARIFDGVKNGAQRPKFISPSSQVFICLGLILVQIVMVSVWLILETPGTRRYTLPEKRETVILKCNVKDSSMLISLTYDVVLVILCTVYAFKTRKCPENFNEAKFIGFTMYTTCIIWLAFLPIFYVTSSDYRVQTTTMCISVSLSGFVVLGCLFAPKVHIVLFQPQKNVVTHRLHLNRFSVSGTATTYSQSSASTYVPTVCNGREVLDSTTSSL
T2 sequence (P35400 35-915): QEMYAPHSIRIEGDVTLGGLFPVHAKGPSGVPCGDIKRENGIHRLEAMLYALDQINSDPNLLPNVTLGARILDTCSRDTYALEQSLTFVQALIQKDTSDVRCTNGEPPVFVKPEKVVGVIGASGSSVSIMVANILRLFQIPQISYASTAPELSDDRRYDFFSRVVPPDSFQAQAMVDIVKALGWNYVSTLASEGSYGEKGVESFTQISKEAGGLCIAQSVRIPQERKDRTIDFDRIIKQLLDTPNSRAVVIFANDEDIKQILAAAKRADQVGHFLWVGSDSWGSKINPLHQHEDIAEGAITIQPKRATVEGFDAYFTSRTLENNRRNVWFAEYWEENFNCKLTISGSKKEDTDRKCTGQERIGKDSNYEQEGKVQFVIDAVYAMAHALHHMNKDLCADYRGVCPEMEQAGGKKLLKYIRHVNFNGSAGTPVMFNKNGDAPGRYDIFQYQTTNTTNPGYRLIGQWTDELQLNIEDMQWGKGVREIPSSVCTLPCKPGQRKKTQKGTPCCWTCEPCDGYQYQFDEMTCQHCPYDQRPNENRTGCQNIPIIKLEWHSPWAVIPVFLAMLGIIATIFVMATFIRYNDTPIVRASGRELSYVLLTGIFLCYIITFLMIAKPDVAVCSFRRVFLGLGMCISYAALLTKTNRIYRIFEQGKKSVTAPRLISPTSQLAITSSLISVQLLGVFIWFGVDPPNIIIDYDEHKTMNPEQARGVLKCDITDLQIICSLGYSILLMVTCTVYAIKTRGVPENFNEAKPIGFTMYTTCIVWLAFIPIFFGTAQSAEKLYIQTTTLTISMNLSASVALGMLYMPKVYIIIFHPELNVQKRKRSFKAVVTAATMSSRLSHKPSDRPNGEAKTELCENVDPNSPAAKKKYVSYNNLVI
Method: Samples were prepared in the same manner as for mGluR2/7 heterodimers and imaged in smFRET.
(§1) (100 ms time resolution).

[2] = molecular target: T3, SNAP-mGluR7(N74K) homodimer (Rattus norvegicus, UniProt P35400, N74K); assay: smFRET on SNAP-mGluR7(N74K) homodimers; assay type: biochemical; conditions: 10 mM glutamate; wild-type at >10X higher glutamate
T3 construct: HA (N); made in house; host or cells: HEK293T
T3 sequence (P35400 35-915 N74K): as the sequence (P35400 35-915) above, with N40K counted along it
Excerpt: as §1

[3] = molecular target: T4, CLIP-mGluR2/SNAP-mGluR2(YADA) dimer (Rattus norvegicus, UniProt P31421, D295A/Y216A); assay: smFRET on CLIP-mGluR2/SNAP-mGluR2(YADA) dimers; assay type: biochemical; conditions: for mGluR2/2(YADA) Histogram area: Figure 4c
T4 construct: Flag (N); HA (N); made in house; host or cells: HEK293T
T4 sequence (P31421 19-872, stated change not applied): as the sequence (P31421 19-872 F756D) above, with D738F counted along it
T4 sequence (P31421 19-872 Y216A/D295A): as the sequence (P31421 19-872 F756D) above, with Y198A, D277A, D738F counted along it
Excerpt: To examine this, we tested the behavior of a heterodimer that co-assembles a wild-type mGluR2 with a binding site mutant version of mGluR2, mGluR2 (Y216A and D295A; known as the YADA mutant). […] We co-expressed CLIP-mGluR2 and SNAP-mGluR2(YADA) and labeled with the SNAP-selective acceptor dye BG-Alexa-647 and the CLIP-selective donor dye BC-DY-547. […] These findings indicate that closure of a single wild-type mGluR2 subunit is much more efficient in activating the receptor when partnered in the dimer with an mGluR7 than with another mGluR2.
as §1

[4] = molecular target: SNAP-mGluR2/SNAP-mGluR2 homodimer (mGluR2/2) (Rattus norvegicus, UniProt P31421); assay: Live-cell ensemble FRET of SNAP-mGluR2/2 homodimer in HEK293T cells; assay type: cell-based; design: HA (N); made in house; host or cells: HEK293T; conditions: for normalized FRET response (Figure 3c titration), AVG: left block
SNAP-mGluR2/SNAP-mGluR2 homodimer (mGluR2/2), sequence (P31421 19-872): as the sequence (P31421 19-872 F756D) above, with D738F counted along it
Method: (§2) After labeling, cells were mounted on an upright, scanning confocal microscope (Zeiss LSM 780) and imaged with a 20X objective. […] Clusters of cells were analyzed together and FRET was calculated as FRET = (IA)/(ID + IA), in which ID is the fluorescence donor intensity and IA is the fluorescence acceptor intensity. […] Fitting of dose–response curves was performed using Prism (Graphpad). […] Drugs were delivered with a gravity-driven perfusion system.

SNAP-mGluR4/4 homodimer = molecular target: T5, SNAP-mGluR4/4 homodimer (Rattus norvegicus, UniProt P31423); assay: Live-cell ensemble FRET of SNAP-mGluR4/4 homodimer in HEK293 cells; assay type: cell-based
T5 construct: HA (N); expressed in transfected cells; host or cells: HEK293 / HEK293T
T5 sequence (P31423 33-912): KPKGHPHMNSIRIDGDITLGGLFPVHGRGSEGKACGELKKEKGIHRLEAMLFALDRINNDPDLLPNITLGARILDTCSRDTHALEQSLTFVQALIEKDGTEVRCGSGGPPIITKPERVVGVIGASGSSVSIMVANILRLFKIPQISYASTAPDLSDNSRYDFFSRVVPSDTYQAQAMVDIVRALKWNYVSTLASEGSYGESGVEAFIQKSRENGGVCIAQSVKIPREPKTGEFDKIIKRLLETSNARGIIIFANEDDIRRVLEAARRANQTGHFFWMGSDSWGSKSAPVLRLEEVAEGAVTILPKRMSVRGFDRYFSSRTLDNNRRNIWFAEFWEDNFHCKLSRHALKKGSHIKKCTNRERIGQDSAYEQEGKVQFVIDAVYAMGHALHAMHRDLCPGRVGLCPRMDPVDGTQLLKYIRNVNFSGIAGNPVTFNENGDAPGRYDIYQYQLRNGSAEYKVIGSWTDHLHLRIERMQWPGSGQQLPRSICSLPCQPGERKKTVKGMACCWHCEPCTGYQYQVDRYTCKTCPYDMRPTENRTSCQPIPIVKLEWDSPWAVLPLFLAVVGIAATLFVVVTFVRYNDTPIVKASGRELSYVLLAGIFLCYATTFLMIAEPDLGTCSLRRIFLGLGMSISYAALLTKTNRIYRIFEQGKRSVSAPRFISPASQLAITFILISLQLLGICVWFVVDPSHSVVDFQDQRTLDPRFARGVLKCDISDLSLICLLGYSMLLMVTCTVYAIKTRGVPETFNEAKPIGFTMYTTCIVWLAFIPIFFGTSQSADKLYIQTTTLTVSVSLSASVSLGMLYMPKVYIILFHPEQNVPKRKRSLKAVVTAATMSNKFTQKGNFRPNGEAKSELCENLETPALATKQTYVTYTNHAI
Method: as §2

In the case of N[C@@H](CCC(=O)O)C(=O)O [glutamate], the “first low glutamate concentration component, share of maximal activation” value (mGluR5/mGluR5(YADA)) is given as ~ 20%, the activation by glutamate (mGluR5(YADA) homodimer) is given as “not be activated” and the “Current, 1 mM Glu” value (SNAP-mGluR2(F756D)) is given as 0. It also gave a smFRET histogram value ([1]; FRET bin 0) of 5.12E-04, a smFRET histogram value ([1]; FRET bin 0.02) of 0.00118 and a smFRET histogram value ([1]; FRET bin 0.04) of 0.00527. It also gave a smFRET histogram value ([1]; FRET bin 0.06) of 0.01241, a smFRET histogram value ([1]; FRET bin 0.08) of 0.03308 and a smFRET histogram value ([1]; FRET bin 0.1) of 0.05942. The smFRET histogram value ([1]; FRET bin 0.12) was 0.08729, the smFRET histogram value ([1]; FRET bin 0.14) was 0.111 and the smFRET histogram value ([1]; FRET bin 0.16) was 0.1262. The smFRET histogram value ([1]; FRET bin 0.18) was 0.1233, the smFRET histogram value ([1]; FRET bin 0.2) was 0.1027 and the smFRET histogram value ([1]; FRET bin 0.22) was 0.08729. The smFRET histogram value ([1]; FRET bin 0.24) was 0.06369, the smFRET histogram value ([1]; FRET bin 0.26) was 0.04632 and the smFRET histogram value ([1]; FRET bin 0.28) was 0.03089. The smFRET histogram value ([1]; FRET bin 0.3) was 0.01963, the smFRET histogram value ([1]; FRET bin 0.32) was 0.01469 and the smFRET histogram value ([1]; FRET bin 0.34) was 0.01371. The smFRET histogram value ([1]; FRET bin 0.36) was 0.01107, the smFRET histogram value ([1]; FRET bin 0.38) was 0.01037 and the smFRET histogram value ([1]; FRET bin 0.4) was 0.00851. It also gave a smFRET histogram value ([1]; FRET bin 0.42) of 0.00558, a smFRET histogram value ([1]; FRET bin 0.44) of 0.00425 and a smFRET histogram value ([1]; FRET bin 0.46) of 0.00239. For the same compound, the smFRET histogram value ([1]; FRET bin 0.48) was 0.00285, the smFRET histogram value ([1]; FRET bin 0.5) was 0.00309 and the smFRET histogram value ([1]; FRET bin 0.52) was 0.00461. It also gave a smFRET histogram value ([1]; FRET bin 0.54) of 0.00369, a smFRET histogram value ([1]; FRET bin 0.56) of 0.00265 and a smFRET histogram value ([1]; FRET bin 0.58) of 0.00122. For the same compound, the smFRET histogram value ([1]; FRET bin 0.6) was 7.52E-04, the smFRET histogram value ([1]; FRET bin 0.62) was 8.08E-05 and the smFRET histogram value ([1]; FRET bin 0.64) was 4.04E-05. For the same compound, the smFRET histogram value ([1]; FRET bin 0.66) was 1.92E-05, the smFRET histogram value ([1]; FRET bin 0.68) was 1.92E-05 and the smFRET histogram value ([1]; FRET bin 0.7) was 6.75E-05. For the same compound, the smFRET histogram value ([1]; FRET bin 0.72) was 4.04E-05, the smFRET histogram value ([1]; FRET bin 0.74) was 7.95E-06 and the smFRET histogram value ([1]; FRET bin 0.76) was 1.62E-04. It also gave a smFRET histogram value ([1]; FRET bin 0.78) of 4.04E-05, a smFRET histogram value ([1]; FRET bin 0.8) of 0 and a smFRET histogram value ([1]; FRET bin 0.82) of 0. For the same compound, the smFRET histogram value ([1]; FRET bin 0.84) was 0, the smFRET histogram value ([1]; FRET bin 0.86) was 0 and the smFRET histogram value ([1]; FRET bin 0.88) was 0. For the same compound, the smFRET histogram value ([1]; FRET bin 0.9) was 0, the smFRET histogram value ([1]; FRET bin 0.92) was 0 and the smFRET histogram value ([1]; FRET bin 0.94) was 0. The smFRET histogram value ([1]; FRET bin 0.96) was 0, the smFRET histogram value ([1]; FRET bin 0.98) was 0 and the smFRET histogram value ([1]; FRET bin 1) was 0. For the same compound, the active state occupancy ([1]; 10 μM glutamate) was ~ 95%, the “occupancy of activated low FRET state vs wild-type mGluR7” value [2] was “greater occupancy of the activated low FRET (~0.2) state” and the “mGluR2/2(YADA) Histogram area” value ([3]; Glu 1e-6) was 0.0005. For the same compound, the “mGluR2/2(YADA) Histogram area” value ([3]; Glu 3e-6) was 0.0013, the “mGluR2/2(YADA) Histogram area” value ([3]; Glu 1e-5) was 0.00167 and the “mGluR2/2(YADA) Histogram area” value ([3]; Glu 3e-5) was 0.00171. The “mGluR2/2(YADA) Histogram area” value ([3]; Glu 0.0001) was 0.00339, the “mGluR2/2(YADA) Histogram area” value ([3]; Glu 0.0003) was 0.00443 and the “mGluR2/2(YADA) Histogram area” value ([3]; Glu 0.001) was 0.00578. The “mGluR2/2(YADA) Histogram area” value ([3]; Glu 0.01) was 0.00605, the “mGluR2/2(YADA) Histogram area” value ([3]; Glu 0.1) was 0.00616 and the “maximal occupancy of the low FRET activated conformation” value ([3]; high glutamate) was ~ 30%. For the same compound, the “fractional change in FRET (Figure 1c), Average” value ([4]; 1 mM glutamate, live cells) was 0.0345, the “normalized FRET response (Figure 3c titration), AVG” value (from here on “normalized FRET response”) ([4]; Glu 1uM, normalized to 10 mM) was 0.02436 and the “normalized FRET response” value ([4]; Glu 5uM) was 0.1119. The “normalized FRET response” value ([4]; Glu 10uM) was 0.2744, the “normalized FRET response” value ([4]; Glu 20uM) was 0.534 and the “normalized FRET response” value ([4]; Glu 50uM) was 0.7966. The “normalized FRET response” value ([4]; Glu 100uM) was 0.8891, the “normalized FRET response” value ([4]; Glu 200uM) was 0.9536 and the “normalized FRET response” value ([4]; Glu 500uM) was 0.9786. The “normalized FRET response” value ([4]; Glu 1mM) was 0.9832, the “normalized FRET response” value ([4]; Glu 10mM (normalization point)) was 1 and the “titration values, single replicates 1-3” value (SNAP-mGluR4/4 homodimer; Glu 1e-8, individual replicates) was 0. The “titration values, AVG (normalized response)” value (SNAP-mGluR4/4 homodimer; Glu 1e-7) was 0.0203, the “titration values, single replicates 1-3” value (SNAP-mGluR4/4 homodimer; Glu 1e-7, individual replicates, listed as Glu) was 0.03656 and 0.01694 and 0.007398 and the “titration values, AVG (normalized response)” value (SNAP-mGluR4/4 homodimer; Glu 1e-6) was 0.0444. The “titration values, single replicates 1-3” value (SNAP-mGluR4/4 homodimer; Glu 1e-6, individual replicates, listed as Glu) was 0.05482 and 0.03845 and 0.03991, the “titration values, AVG (normalized response)” value (SNAP-mGluR4/4 homodimer; Glu 1e-5) was 0.4393 and the “titration values, single replicates 1-3” value (SNAP-mGluR4/4 homodimer; Glu 1e-5, individual replicates, listed as Glu) was 0.4343 and 0.4025 and 0.481. The “titration values, AVG (normalized response)” value (SNAP-mGluR4/4 homodimer; Glu 0.0001) was 0.8959, the “titration values, single replicates 1-3” value (SNAP-mGluR4/4 homodimer; Glu 0.0001, individual replicates, listed as Glu) was 0.9016 and 0.8805 and 0.9055 and the “titration values, AVG (normalized response)” value (SNAP-mGluR4/4 homodimer; Glu 0.001 (normalisation point)) was 1. The “titration values, single replicates 1-3” value (SNAP-mGluR4/4 homodimer; Glu 0.001 (normalisation point), individual replicates) was 1.
